Data: PMC9374667 (Communications Biology, 2022)
Where “and” joins values, the source holds several entries; their conditions need not be identical. Equal entries are not always repeated.

Tests used:
[1] = tested on: db/db mice; experiment: Serum CHO, TG, FFA, LDL-C, HDL-C and ADPN in the fasted state; assay type: in vivo; details: db/db mice
Description: The serum was collected by centrifugation at 3000 × g at 4 °C for 15 min and stored at −80 °C until analysis. TG, TC, LDL-C, HDL-C, and FFA were routinely tested on a Chemray 240 automatic biochemical analyzer (Chemray 240, Shenzhen, China). Serum levels of mouse adiponectin, interleukin6 (IL-6), tumor necrosis factor-α (TNF-α) were measured using commercial enzyme-linked immunosorbent assay (ELISA) kits (Nanjing Jiancheng Bioengineering Institute, Nanjing, China) and according to the manufacturer’s instructions. The levels of IL-6, TNF-α in 3T3-L1 adipocyte culture supernatant were also detected by ELISA.

[2] = tested on: db/db mice; experiment: Body weight of db/db mice during 35-day treatment; assay type: in vivo; details: db/db mice; for Average body weight gain: day 35, mean ± SD; for Body weight gain in 5 weeks: individual mice
Description: The lean wild type control and the db/db control mice were given equal vehicle volume (0.5% CMC-Na solution). All mice were monitored for food intake, body weight, and fasting blood glucose during the 35-day trial. Glucose tolerance test (GTT) and insulin resistance test (ITT) were performed at 4 and 5 weeks of treatment, respectively. Metabolic analysis was performed at 5 weeks of treatment. At the end of the study, blood samples were taken through the retroorbital venous sinus of mice, fat depots (brown fat, inguinal subcutaneous fat, epididymal fat, perirenal fat and mesenteric fat depot) were dissected, weighed, and immediately frozen in liquid nitrogen and stored at −80 °C until required. Weight of fat depots are expressed in percentage (fat depots weight /bodyweight * 100%).

[3] = 150 mg/kg, fasted state, individual mice
[4] = vs vehicle, BJ 75 and 150 mg/kg, BBR 150 mg/kg, Ibu 150 mg/kg

## CC(C)Cc1ccc(C(C)C(=O)[O-])cc1.COc1ccc2cc3[n+](cc2c1OC)CCc1cc2c(cc1-3)OCO2.O.O.O.O [BJ, berberine-ibuprofen]
[1]; 75 mg/kg, fasted state, individual mice
  Serum TG: 0.92 mmol/L and 1.17 mmol/L and 1.79 mmol/L and 1.19 mmol/L and 1.62 mmol/L and 1.33 mmol/L
[1]; [3]
  Serum CHO: 3.2 mmol/L and 4.9 mmol/L and 4.5 mmol/L and 4.2 mmol/L and 3.7 mmol/L and 4.6 mmol/L
  Serum TG: 1.18 mmol/L and 1.01 mmol/L and 1.29 mmol/L and 1.1 mmol/L and 1.5 mmol/L
[1]; [4]
  Serum levels of CHO, TG, FFA and LDL-C: decreased
  Serum levels of HDL-C and adiponectin (ADPN): increased
[2]; 75 mg/kg gavage once per day, day 1, individual mice, 75 mg/kg
  Body weight: 42 grams and 38 grams and 33 grams and 41 grams and 34 grams and 40 grams
[2]; 75 mg/kg gavage once per day, day 4, individual mice, 75 mg/kg
  Body weight: 44 grams and 40 grams and 36 grams and 41 grams and 39 grams and 42 grams
[2]; 75 mg/kg gavage once per day, day 7, individual mice, 75 mg/kg
  Body weight: 45 grams and 40 grams and 41 grams and 35 grams and 43 grams and 36 grams
[2]; 75 mg/kg gavage once per day, day 10, individual mice, 75 mg/kg
  Body weight: 43 grams and 40 grams and 42 grams and 35 grams and 44 grams and 36 grams
[2]; 75 mg/kg gavage once per day, day 13, individual mice, 75 mg/kg
  Body weight: 45 grams and 42 grams and 43 grams and 35 grams and 37 grams and 41 grams and 44 grams
[2]; 75 mg/kg gavage once per day, day 16, individual mice, 75 mg/kg
  Body weight: 44 grams and 42 grams and 37 grams and 46 grams and 39 grams
[2]; 75 mg/kg gavage once per day, day 19, individual mice, 75 mg/kg
  Body weight: 47 grams and 42 grams and 46 grams and 38 grams and 48 grams and 37 grams and 44 grams and 45 grams and 41 grams
[2]; 75 mg/kg gavage once per day, day 22, individual mice, 75 mg/kg
  Body weight: 49 grams and 44 grams and 48 grams and 39 grams and 38 grams and 46 grams and 47 grams and 42 grams
[2]; 75 mg/kg gavage once per day, day 25, individual mice, 75 mg/kg
  Body weight: 50 grams and 45 grams and 49 grams and 40 grams and 48 grams and 38 grams and 46 grams and 42 grams
[2]; 75 mg/kg gavage once per day, day 28, individual mice, 75 mg/kg
  Body weight: 50 grams and 46 grams and 40 grams and 49 grams and 45 grams and 47 grams and 41 grams
[2]; 75 mg/kg gavage once per day, day 31, individual mice, 75 mg/kg
  Body weight: 53 grams and 47 grams and 52 grams and 40 grams and 50 grams and 41 grams and 43 grams
[2]; 75 mg/kg gavage once per day, day 34, individual mice, 75 mg/kg
  Body weight: 52 grams and 47 grams and 44 grams and 51 grams and 43 grams and 50 grams and 45 grams and 48 grams
[2]; 75 mg/kg gavage once per day
  Average body weight gain: 9.4 ± 2.7 g
[2]; 75 mg/kg gavage once per day, 75 mg/kg
  Body weight gain in 5 weeks: 7 grams and 10 grams and 9 grams and 14 grams and 11 grams
[2]; 150 mg/kg gavage once per day, day 1, individual mice, 150 mg/kg
  Body weight: 38 grams and 44 grams
[2]; 150 mg/kg gavage once per day, day 4, individual mice, 150 mg/kg
  Body weight: 39 grams
[2]; 150 mg/kg gavage once per day, day 7, individual mice, 150 mg/kg
  Body weight: 39 grams
[2]; 150 mg/kg gavage once per day, day 10, individual mice, 150 mg/kg
  Body weight: 38 grams
[2]; 150 mg/kg gavage once per day, day 13, individual mice, 150 mg/kg
  Body weight: 40 grams
[2]; 150 mg/kg gavage once per day, day 16, individual mice, 150 mg/kg
  Body weight: 39 grams
[2]; 150 mg/kg gavage once per day, day 19, individual mice, 150 mg/kg
  Body weight: 39 grams
[2]; 150 mg/kg gavage once per day, day 22, individual mice, 150 mg/kg
  Body weight: 37 grams
[2]; 150 mg/kg gavage once per day, day 25, individual mice, 150 mg/kg
  Body weight: 37 grams and 44 grams
[2]; 150 mg/kg gavage once per day, day 28, individual mice, 150 mg/kg
  Body weight: 38 grams and 43 grams
[2]; 150 mg/kg gavage once per day, day 31, individual mice, 150 mg/kg
  Body weight: 40 grams and 46 grams
[2]; 150 mg/kg gavage once per day, day 34, individual mice, 150 mg/kg
  Body weight: 43 grams and 48 grams
[2]; 150 mg/kg gavage once per day
  Average body weight gain: 5.2 ± 0.9 g
[2]; 150 mg/kg gavage once per day, 150 mg/kg
  Body weight gain in 5 weeks: 6 grams and 5 grams and 4 grams
[2]; 5 weeks, BJ 75 and 150 mg/kg, BBR 150 mg/kg, Ibu 150 mg/kg
  Body weight compared with vehicle: lower body weight than the db/db mice treated with the vehicle
